Reference: US7238524B2, “Prostate cancer cell lines” (Board of Regents of the University of Nebraska, priority 2001, dated 2007)

How the values were obtained:
Type in all cases: cell-based, human
[1] = system: LNCaP cells; assay: Effect of butyrate on LNCaP cell growth; conditions: butyrate treatment, FIG. 10A
Experimental: (§1) FIGS. 10A and 10B show a pair of graphs illustrating the effects of sodium butyrate on LNCaP cell population (FIG. 10A) accompanied by a western blot showing resolution of NSE and RPTPα expression levels in LNCaP cells in the presence of increasing concentrations of sodium butyrate (FIG. 10B).
(§2) The regulation of RPTPα expression was then investigated in prostate cancer cells. The regulation of RPTPα expression was measured using butyrate since this pharmacological reagent induces cellular differentiation and has been utilized in the clinical trials for advanced prostate cancer therapy (29). […] This 160 kDa protein may represent an isoform of RPTPα, due to post-translational modifications (27,28).

[2] = system: RPTPα; assay: Western blot of RPTPα expression in butyrate-treated LNCaP cells; conditions: increasing concentrations of sodium butyrate, FIG. 10B
Experimental: as §1, §2

[3] = system: NSE; assay: Western blot of NSE expression in butyrate-treated LNCaP cells; conditions: increasing concentrations of sodium butyrate, FIG. 10B
Experimental: as §1, §2

[4] = system: NSE; assay: Induction of NE transdifferentiation (NSE expression, western blot) in LNCaP cells cultured in steroid-reduced condition; conditions: androgen-responsive LNCaP cells in steroid-reduced condition, FIG. 7C
Text: (§3) FIGS. 7A-7C show three western blots. FIG. 7A is a western blot showing levels of MEK and phosphorylated MEK in LNCaP cells and three NE-like subclone cells, NE-1-3, NE-1-8 and NE-1-9. FIG. 7B is a western blot showing inhibition of ERK activation levels in the presence of the MEK inhibitor, PD098059, in NE-1-3 subclone cells. FIG. 7C is a western blot showing inhibition of NSE expression levels mediated by the MEK inhibitor, PD098059, in steroid-reduced medium.
(§4) To test the causal relationship of ERK/MAPK activation with NE-like transdifferentiation, MEKs, up-stream regulators of ERK/MAPK kinases, were examined to determine if they are also activated in the NE-like subclone cells.

[5] = system: ERK/MAPK; assay: Western blot of ERK/MAPK activation in NE-like subclone cells with MEK inhibitor; conditions: NE-like subclone cells (NE-1-3), FIG. 7B
Text: as §3, §4

Row | SMILES | growth of LNCaP cells [1] | RPTPα protein expression [2] | NSE protein expression [3] | induction of NE transdifferentiation (NSE expression) [4] | activation of ERK/MAPK (phosphorylated ERK) [5]
1 | CCCC(=O)[O-].[Na+] [Butyrate, sodium butyrate] | growth suppression | elevated levels | elevated levels |  | 
2 | COc1cccc(-c2cc(=O)c3ccccc3o2)c1N [PD098059] |  |  |  | abolished | effectively inhibited
